This is an account of results in US10517850B2, “Combination of TAFIa inhibitor with plasminogen activator” (DAIICHI SANKYO COMPANY, LIMITED, priority 2015, dated 2019).

Test [1] deals with fibrinolytic activity (D-dimer level in plasma). The test can be described thus: Test on combined use with t-PA: tissue factor-infused rats, plasma D-dimer level as index for fibrinolytic activity. It is filed as in vivo, male Wistar rats. Conditions: for D-dimer level Mean: jugular vein, blood at 45 min, N=7, control 5.0. Here is the method:
1. Preparation of Administration Solution
(1) (2S)-5-Amino-2-{[1-(trans-4-methylcyclohexyl)-1H-imidazol-4-yl]methyl}valeric acid p-toluenesulfonate anhydrate (hereinafter, referred to as “compound A”) was dissolved in saline to prepare a 1.0 mg/mL solution. The solution was further diluted to 0.0050 mg/mL using saline. The dose of compound A was indicated in terms of a free form (conversion factor: 0.6301).
(2) t-PA (alteplase (Activacin (registered trademark) for Injection 6,000,000), Kyowa Hakko Kirin Co., Ltd.) was adjusted to 600,000 I.U./mL (which was defined as 1.0 mg/mL) with injectable water included therein. The resulting solution was further diluted to 0.17, 0.083, and 0.042 mg/mL using saline.
(3) The 0.0050 mg/mL compound A solution was mixed with an equal amount of saline or the 0.042 mg/mL t-PA solution to respectively prepare administration solutions for a compound A (2.5 μg/kg) group and a combination group. The 0.17, 0.083, and 0.042 mg/mL t-PA solutions were mixed with an equal amount of saline to respectively prepare administration solutions for t-PA (0.083, 0.042, and 0.021 mg/kg) groups.
(4) 4 mL of saline was added to 10 mL (standard) of a tissue factor (Dade (registered trademark) Innovin (registered trademark), Sysmex Corp.) to prepare a tissue factor solution.
(1) Ten-week-old male Wistar rats (Japan SLC, Inc.) were fasted from a day before the experiment. On the basis of their body weights measured in the morning on the day of the experiment, 7 rats were assigned to each of 6 groups: a control (saline) group, a compound A (2.5 μg/kg) group, t-PA (0.021, 0.042, and 0.083 mg/kg) groups, and a combination group of compound A (2.5 μg/kg) and t-PA (0.021 mg/kg).
(2) These rats were anesthetized by the administration of 100 mg/kg thiopental sodium (Ravonal (registered trademark), Mitsubishi Tanabe Pharma Corp.), and the tissue factor solution was continuously administered at 7.5 mL/kg/hr for 20 minutes from the jugular veins. 25 minutes after the start of the administration of the tissue factor, the administration solution for each group was rapidly administered from the jugular veins. 45 minutes after the start of the administration of the tissue factor, blood was collected from the jugular veins into syringes supplemented with citric acid in advance, and plasma was prepared by centrifugation. The plasma was diluted 20-fold using a factor diluent (LSI Medience Corp.). D-dimer levels were measured using LPIA-Ace D-D dimer II and ACL TOP 500 CTS (Instrumentation Laboratory) and used as an index for fibrinolytic activity (FIG. 1).
(1) Microsoft Excel 2003 and SAS System Release 8.2 were used in statistical analysis.
(2) For each group, the basic statistics (mean and standard error) of the D-dimer levels were calculated and used as results relating to fibrinolytic activity (Table 1).
(3) The comparison of the compound A (2.5 μg/kg) group with the control (saline) group was carried out by the Student's t test. The calculated P value was rounded off and indicated down to four decimal places, and the significance level was set to two-sided 5%.
(4) The comparison of the t-PA (0.021, 0.042, and 0.083 mg/kg) groups with the control (saline) group was carried out by the parametric Dunnett's test. The calculated P value was rounded off and indicated down to four decimal places, and the significance level was set to two-sided 5%.
(5) The comparison of the compound A (2.5 μg/kg) group or the t-PA (0.021 mg/kg) single administration group with the combination group was carried out by the parametric Dunnett's test. The calculated P value was rounded off and indicated down to four decimal places, and the significance level was set to two-sided 5%.
(6) The comparison of the compound A (2.5 μg/kg) group or the t-PA (0.021 mg/kg) single administration group with the combination group was carried out by two-way ANOVA. […]

The test system is the same in test [2]. The test can be described thus: Test on combined use with u-PA: tissue factor-infused rats, plasma D-dimer level as index for fibrinolytic activity. It is filed as in vivo, male Wistar rats. Here is the method:
(1) u-PA (urokinase injection “Fuji” (registered trademark) 60,000, Wakamoto Co., Ltd.) was adjusted to 90 kU/mL with injectable water.
(2) Compound A was dissolved in saline to prepare a 1.0 mg/mL solution. The solution was further diluted to 0.0050 mg/mL using saline. The dose of compound A was indicated in terms of a free form (conversion factor: 0.6301).
(3) Appropriate amounts of saline, the 90 kU/mL u-PA solution, and the 0.0050 mg/mL compound A solution were mixed to respectively prepare administration solutions for a u-PA (30 kU/kg) group, a compound A (2.5 μg/kg) group, and a combination group of u-PA (30 kU/kg) and compound A (2.5 μg/kg).
(4) 5 mL of saline was added to 10 mL (standard) of a tissue factor (Dade (registered trademark) Innovin (registered trademark), Sysmex Corp.) to prepare a tissue factor solution.
(1) Eleven-week-old male Wistar rats (Japan SLC, Inc.) were fasted from a day before the experiment. On the basis of their body weights measured in the morning on the day of the experiment, 8 rats were assigned to each of 4 groups: a control (saline) group, a u-PA (30 kU/kg) group, a compound A (2.5 μg/kg) group, and a combination group of u-PA (30 kU/kg) and compound A (2.5 μg/kg). […]
(2) For each group, the basic statistics (mean and standard error) of the D-dimer levels were calculated and used as results relating to fibrinolytic activity (Table 2). […]

Regarding `C[C@H]1CC[C@H](n2cnc(C[C@H](CCCN)C(=O)O)c2)CC1.Cc1ccc(S(=O)(=O)O)cc1` (relative stereo) [Compound A, (2S)-5-Amino-2-{[1-(trans-4-methylcyclohexyl)-1H-imidazol-4-yl]methyl}valeric acid p-toluenesulfonate anhydrate], the “D-dimer level Mean” value in test [1] (compound A 2.5 μg/kg (free form) alone, 25 min after start of tissue factor) was found to be 26.4 µg/mL; in test [2] (compound A 2.5 μg/kg (free form) alone, jugular vein, blood at 45 min, N=8, control 24.2), 103.8 µg/mL. The “fibrinolytic activity (D-dimer level) with respect to the control (saline) group” value in test [1] (compound A 2.5 μg/kg, Student's t test, P=0.1431) was “did not exhibit significantly excellent fibrinolytic activity”. Further, the “fibrinolytic activity (D-dimer level) with respect to the control group” value in test [2] (compound A 2.5 μg/kg single administration, Student's t test, P=0.0019) is on record as “exhibited significantly excellent fibrinolytic activity”.
As to “t-PA: tissue plasminogen activator, alteplase (Activacin for Injection 6,000,000, Kyowa Hakko Kirin)”, the “D-dimer level Mean” value came to 25.0 µg/mL in test [1] (t-PA 0.021 mg/kg alone), 95.2 µg/mL in test [1] (t-PA 0.042 mg/kg alone) and 254.7 µg/mL in test [1] (t-PA 0.083 mg/kg alone). Besides, the “fibrinolytic activity (D-dimer level) with respect to the control (saline) group” value in test [1] (t-PA 0.021 mg/kg, parametric Dunnett's test, P=0.3080) is “did not exhibit significantly excellent fibrinolytic activity”; in test [1] (t-PA 0.042 mg/kg, parametric Dunnett's test, P<0.0001) it was “exhibited significantly excellent fibrinolytic activity”; in test [1] (t-PA 0.083 mg/kg, parametric Dunnett's test, P<0.0001), “exhibited significantly excellent fibrinolytic activity”.
